Converted amounts (≈) assume the structure as drawn.
Legend:
Assay in all cases: Broth microdilution MIC, clinical isolate panel
Assay type in all cases: cell-based
[1] = system: Acinetobacter spp. isolates (n = 104); details: Acinetobacter spp. (n = 104)
Protocol: (§1) Comparator antibiotics were supplied by Micromyx, and stock solutions were prepared on the first day of testing using solvents recommended by CLSI (1). Stock solutions of all compounds were made at 40× the final testing concentration and stored at −80° C. prior to testing. Information regarding compound source, catalog and lot number, testing concentrations and drug diluent for the comparators and test agent are detailed below in Table 3.
(§2) The test organisms evaluated in this study consisted of clinical isolates from the Micromyx Repository and reference isolates from the American Type Culture Collection (ATCC; Manassas, Va.). The clinical isolates were obtained from USA hospitals. Upon initial receipt at Micromyx, the organisms were sub-cultured onto an appropriate agar medium. Following incubation, colonies were harvested from these plates and cell suspensions prepared and frozen at −80° C. with a cryoprotectant. Prior to testing, the isolates were streaked from frozen vials onto Trypticase Soy Agar with 5% sheep blood (Becton Dickenson [BD]; Sparks, Md.; Lot Nos. 7173618, 7166759, 7208688, 72144895, 7228505 and Remel Lenexa, Kans. Lot No. 212574). Plates were incubated at 35° C. overnight.
(§3) Mueller Hinton II broth (MHB II; BD; Lot Nos. 6258541 and 7143896) was used for MIC testing of aerobic organisms.
(§4) MIC values were determined using a broth microdilution procedure described by CLSI (1, 3). Automated liquid handlers (Multidrop 384, Labsystems, Helsinki, Finland; Biomek 2000 and Biomek FX, Beckman Coulter, Fullerton Calif.) were used to conduct serial dilutions and liquid transfers.
(§5) To prepare the drug mother plates, which would provide the serial drug dilutions for the replicate daughter plates, the wells of columns 2-12 of standard 96-well microdilution plates (Costar 3795) were filled with 150 μl of the designated diluent for each row of drug. The test articles and comparator compounds (300 μl at 40× the highest concentration to be tested) were dispensed into the appropriate wells in column 1. The Biomek 2000 was then used to make 2-fold serial dilutions in the mother plates from column 1 through column 11. The wells of Column 12 contained no drug and served as the organism growth control wells for the assay.
(§6) The daughter plates were loaded with 185 μL per well of MHB II using the Multidrop 384. The daughter plates were completed on the Biomek FX instrument which transferred 5 µL of drug solution from each well of a mother plate to the corresponding well of each daughter plate in a single step. A standardized inoculum of each test organism was prepared per CLSI methods (1). The inoculum for each organism was dispensed into sterile reservoirs divided by length (Beckman Coulter), and the Biomek 2000 was used to inoculate the plates. Daughter plates were placed on the Biomek 2000 work surface in reverse orientation so that inoculation took place from low to high drug concentration.
(§7) Plates were stacked 3-4 high, covered with a lid on the top plate, placed in plastic bags, and incubated at 35° C. for 16 to 20 hrs. Following incubation, the microplates were removed from the incubator and viewed from the bottom using a plate viewer. […] The MIC was read and recorded as the lowest concentration of drug that inhibited visible growth of the organism.
(§8) Clinical breakpoints to determine percent resistance within a given organism group were obtained from CLSI (3), with the exception of colistin for K. pneumoniae, Enterobacter spp., and E. coli, which are only available from EUCAST.

[2] = system: Escherichia coli isolates (n = 101); details: Escherichia coli (n = 101)
Protocol: as §1, §2, §3, §4, §5, §6, §7, §8

[3] = system: Klebsiella pneumoniae isolates (n = 101); details: Klebsiella pneumoniae (n = 101)
Protocol: as §1, §2, §3, §4, §5, §6, §7, §8

[4] = system: Pseudomonas aeruginosa isolates (n = 109); details: Pseudomonas aeruginosa
Protocol: as §1, §2, §3, §4, §5, §6, §7, §8

[5] = system: Staphylococcus aureus isolates (n = 104); details: Staphylococcus aureus (n = 104), all methicillin-resistant
Protocol: as §1, §2, §3, §4, §5, §6, §7, §8

[6] = system: Enterococcus faecium isolates (n = 104); details: Enterococcus faecium (n = 104)
Protocol: as §1, §2, §3, §4, §5, §6, §7, §8

Question: Which results are given for `CC(C)(O/N=C(\C(=O)N[C@@H]1C(=O)N2C(C(=O)[O-])=C(C[n+]3ccccc3)CS[C@H]12)c1csc(N)n1)C(=O)O` [Ceftazidime]?
Answer: MIC50 [1]: > 32 µg/mL; MIC50 [2]: 0.5 µg/mL (≈ 0.915 µM); MIC ([2]; read-out: Mode (MIC)): 0.25 µg/mL (≈ 0.457 µM); % R (percent of isolates resistant, clinical breakpoints) [3]: Over 80%; MIC50 [3]: > 32 µg/mL; MIC50 [4]: 4 µg/mL (≈ 7.32 µM); MIC ([4]; read-out: Mode (MIC)): 2 µg/mL (≈ 3.66 µM)

Question: With `CCC[C@@H]1C[C@@H](C(=O)N[C@@H]([C@H]2O[C@H](SC)[C@H](O)[C@@H](O)[C@H]2O)[C@H](C)Cl)N(C)C1` [Clindamycin] as the compound, how does the MIC50 [5] read?
Answer: 0.12 µg/mL (≈ 0.282 µM)

Question: For `CCCCCCCCCC(=O)N[C@@H](Cc1c[nH]c2ccccc12)C(=O)N[C@H](CC(N)=O)C(=O)N[C@@H](CC(=O)O)C(=O)N[C@@H]1C(=O)NCC(=O)N[C@@H](CCCN)C(=O)N[C@@H](CC(=O)O)C(=O)N[C@H](C)C(=O)N[C@@H](CC(=O)O)C(=O)NCC(=O)N[C@H](CO)C(=O)N[C@@H]([C@H](C)CC(=O)O)C(=O)N[C@@H](CC(=O)c2ccccc2N)C(=O)O[C@@H]1C` [Daptomycin], which MIC50 [6] is on record?
Answer: 4 µg/mL (≈ 2.47 µM)

Question: And the MIC90 [6]?
Answer: 8 µg/mL (≈ 4.94 µM)

Question: And the MIC ([6]; read-out: Mode (MIC))?
Answer: 2 µg/mL (≈ 1.23 µM)

Question: What about the MIC50 [5] of the same compound?
Answer: 0.5 µg/mL (≈ 0.309 µM)

Question: What about the MIC90 [5] of the same compound?
Answer: 1 µg/mL (≈ 0.617 µM)

Question: And the MIC range [5]?
Answer: 0.25 to 4 µg/mL

Question: What about the MIC ([5]; read-out: Mode (MIC)) of the same compound?
Answer: 0.5 µg/mL (≈ 0.309 µM)

Reference: patent publication US20200071361A1, “ENGINEERED ANTIMICROBIAL AMPHIPHILIC PEPTIDES AND METHODS OF USE” (priority 2017, published 2020)
